From patent US8389440B2, “Synergistic insecticide mixtures” (Bayer Cropscience AG, priority 2002, dated 2013)

Assays:
[1] = system: Heliothis armigera caterpillars; assay: Heliothis armigera test; type: in vivo; conditions: found effect, dipped soya bean shoots
[2] = system: army worm caterpillars (Spodoptera frugiperda); assay: Spodoptera frugiperda test; type: in vivo; conditions: found effect, dipped cabbage leaves
Text: Spodoptera Frugiperda Test

[3] = system: mustard beetle larvae (Phaedon cochleariae); assay: Phaedon larvae test; type: in vivo; conditions: found effect, dipped cabbage leaves
[4] = system: diamond-back moth caterpillars (Plutella xylostella, resistant strain); conditions: found effect, dipped cabbage leaves
Method: Plutella Test, Resistant Strain
After the desired period, the destruction in % is determined. 100% means that all of the caterpillars have been destroyed; 0% means that no caterpillars have been destroyed.

CC[C@H](C)[C@H]1O[C@]2(C=C[C@@H]1C)C[C@@H]1C[C@@H](C/C=C(\C)[C@@H](O[C@H]3C[C@H](OC)[C@@H](O[C@H]4C[C@H](OC)[C@@H](O)[C@H](C)O4)[C@H](C)O3)[C@@H](C)/C=C/C=C3\CO[C@@H]4[C@H](O)C(C)=C[C@@H](C(=O)O1)[C@]34O)O2 [Avermectin, abamectin]
LC50 after 6 days [1]: 0.014 ppm | LC50 after 6 days [2]: 5.553 ppm | LC95 after 3 days [3]: 0.281 ppm

CN/C(=N\[N+](=O)[O-])NCC1CCOC1 (centres unmarked) [Dinotefuran, dinotefuran]
LC50 after 6 days [4]: 27.621 ppm | LC50 after 6 days [1]: 13.165 ppm | LC50 after 6 days [2]: 2.861 ppm | LC95 after 3 days [3]: 42.07 ppm

emamectin benzoate
LC50 after 6 days [4]: 0.174 ppm
